Source: US7365049B2, “Afamin-containing compositions and methods of use” (Vitateg Biotechnology GmbH, priority 2001, dated 2008)
Entries after “also recorded” stand apart in the source; their conditions may differ.

B1: Afamin: 87 kDa protein which belongs to the albumin group; cloned and sequenced, also available in recombinant form (protein, UniProt P43652 22-599, looked up)
Afamin: LPTQPRDIENFNSTQKFIEDNIEYITIIAFAQYVQEATFEEMEKLVKDMVEYKDRCMADKTLPECSKLPNNVLQEKICAMEGLPQKHNFSHCCSKVDAQRRLCFFYNKKSDVGFLPPFPTLDPEEKCQAYESNRESLLNHFLYEVARRNPFVFAPTLLTVAVHFEEVAKSCCEEQNKVNCLQTRAIPVTQYLKAFSSYQKHVCGALLKFGTKVVHFIYIAILSQKFPKIEFKELISLVEDVSSNYDGCCEGDVVQCIRDTSKVMNHICSKQDSISSKIKECCEKKIPERGQCIINSNKDDRPKDLSLREGKFTDSENVCQERDADPDTFFAKFTFEYSRRHPDLSIPELLRIVQIYKDLLRNCCNTENPPGCYRYAEDKFNETTEKSLKMVQQECKHFQNLGKDGLKYHYLIRLTKIAPQLSTEELVSLGEKMVTAFTTCCTLSEEFACVDNLADLVFGELCGVNENRTINPAVDHCCKTNFAFRRPCFESLKADKTYVPPPFSQDLFTFHADMCQSQNEELQRKTDRFLVNLVKLKHELTDEELQSLFTNFANVVDKCCKAESPEVCFNEESPKIGN

How the values were obtained:
Afamin = target: T1, Afamin (Homo sapiens, UniProt P43652); test: Scatchard-plot analysis of the binding of vitamin E to Afamin; details: FIG. 3
T1 sequence (P43652 22-599): B1 Afamin

[1] = tested on: isolated cortical neurons of chicken embryos; test: Low serum assay (2% serum), MTT viability of isolated cortical neurons; type: cell-based; details: partial serum withdrawal to 2%, FIG. 2a
Procedure: (§1) The neuroprotective effect of Afamin was examined by assaying isolated cortical neurons of chicken embryos. The effect of Afamin was tested in a low-serum assay and in two lesion assays, namely in a β-amyloid and a H2O2-lesion assay.
(§2) After the low serum assay or the lesion assay, the MTT assay is used to check the viability of neuronal cells (MTT=3-(4,5-dimethylthiazol-2-yl)-2,5-[…]). This is a suitable model which is extremely reproducible. The test also allows for assaying a large number of samples, and dose-dependent differences in the activity of a substance can be evaluated.
(§3) The neuronal viability of cells in vitro can be determined by means of this […] MTT test. The MTT assay is based on the metabolic reduction of MTT, a substance of yellow color, to dark-blue formazane crystals by mitochondrial dehydrogenases (e.g. succinate dehydrogenase). The crystals are dissolved, and the spectrometric absorption is measured at a suitable wave length.
(§4) In detail, isolated cortical neurons of 8- (lesion assays) or 9- (low serum assay) day-old chicken embryos (White Leghorn or Lohman Brown Hybrid strain) were used.
(§5) The neurons were prepared by breaking ethanoltreated eggs and putting the embryos into a plastic dish. […]
(§6) At the end of each experiment, the viability of the cultures was tested by means of the MTT assay with a plate reader at 570 nm.

[2] = tested on: isolated cortical neurons of chicken embryos; test: β-amyloid lesion assay, MTT viability of isolated cortical neurons; type: cell-based; details: 20 μM pre-aggregated β-amyloid peptide (Aβ25-35) for 72 hours, FIG. 2c
Procedure: as §1, §2, §3, §4, §5, §6

[3] = tested on: isolated cortical neurons of chicken embryos; test: H2O2-lesion assay, MTT viability of isolated cortical neurons; type: cell-based; details: 100 μM H2O2 for 24 h, FIG. 2b
Procedure: After the low serum assay or the lesion assay, the MTT assay is used to check the viability of neuronal cells (MTT=3-(4,5-dimethylthiazol-2-yl)-2,5-diphenyltriazolium bromide).
The neuronal viability of cells in vitro can be determined by means of this calorimetric MTT test. The MTT assay is based on the metabolic reduction of MTT, a substance of yellow color, to dark-blue formazane crystals by mitochondrial dehydrogenases (e.g. succinate dehydrogenase). The crystals are dissolved, and the spectrometric absorption is measured at a suitable wave length.
The neurons were prepared by breaking ethanoltreated eggs and putting the embryos into a plastic dish. After decapitation, the hemispheres were removed and collected. Loose tissue and meningial membranes were removed, and the hemispheres were mechanically dissociated.
80 μl cell suspension containing 6×10^5 cells/ml nutrient medium were added to each well of the microtiter plate which already contained 80 μl of medium with or without the substances. The plates were kept at 37° C., 95% humidity and 5% CO2 without a change of media (up to 8 DIV).
The low serum medium contains 100 ml of DEMEM with 1 g of glucose/l, 2% fetal calf serum, 0.01% Gentamycin and 2 mM L-glutamine. The nutrient medium for the lesion assays contains 100 ml of DMEM with 4.5 g of glucose/l, 5% fetal calf serum, 0.01% gentamycin and 2 mM L-glutamine.
At DIV 8, the cells were treated with 20 μM of pre-aggregated β-amyloid peptide (Aβ25-35; Sigma) for 72 hours, or with 100 μM H2O2 for 24 h.

[4] = tested on: glutamine synthetase (GS); test: 3-NP-induced reduction of glutamine synthetase (GS) activity in brain spheroids; type: cell-based; details: 5-day treatment with 3-NP (0.5 and 5 mM), Afamin 0.3 and 3 μg/ml without vitamin E, FIG. 1
Excerpt: Because of the mechanistic and pathological similarities between 3-NP lesions and Hungington's Disease (HD), 3-NP has been proposed as an alternative HD-model. Malonate and 3-NP are inhibitors of the succinate dehydrogenase which produce an energy loss and lesions which are similar to those observed in HD. Systemic administration of 3-NP causes a progressive locomotory deterioration which corresponds to that of HD.
After the extraction of brain spheroids and a one-week culturing, D,L-alpha-tocopherol (0.1 mM) were added to the medium. Two weeks old spheroids were plated in a plate having six wells. Shortly after the exposure, the medium was replaced by 2 ml of fresh medium. The spheroids were exposed to 3-NP (0.5 and 5 mM, pH adjusted to 7 to 8), or to the protectors vitamin E (0.1 mM), glutathione (1 mM), DTT (0.25 mM), L-NAME (N(G)-nitro-L-[…]-methylester) (0.1 mM), Afamin (without vitamin E (0.3 and 3 μg/ml) or combinations of 3-NP with the protectors for 5 days. After 2 days, freshly prepared 3-NP and protectors were added to the medium (Mathews et al., J. Neurosci, 18(1) (1998), 156-163); Borlongan et al., Neurosci Biohav. Res. 21(3) (1997), 289-293).
The results are illustrated in FIG. 1. […] As mentioned before, this system with 3NP constitutes a recognized model for excitotoxicity and serves as a model for Huntington's Disease.

Molecule | theoretical maximum loading of an Afamin molecule (Afamin) | reduction of apoptosis / neuronal cell death in low serum medium [1] | reduction of damage / neuronal cell death by β-amyloid peptide [2] | reduction of damage / neuronal cell death by H2O2 [3] | protection of glutamine synthetase activity against inactivation by 3NP [4]
Cc1c(C)c2c(c(C)c1O)CCC(C)(CCCC(C)CCCC(C)CCCC(C)C)O2 [vitamin E, D,L-alpha-tocopherol, reference compound] | 18 molecules of vitamin E | capable of reducing the apoptosis | capable of reducing | capable of reducing | 
B1 |  | protects against neuronal cell death; also recorded: capable of reducing the apoptosis | protects against neuronal cell death; also recorded: capable of reducing | protects against neuronal cell death; also recorded: capable of reducing | by far the highest effect of all the tested substances
